Target: T1, F508del (Homo sapiens, UniProt P13569, DEL508-508)
T1 construct: expressed in transfected cells
Experiment: Protocol 2: FRET membrane potential optical assay (VIPR), identification of correction compounds
Format: cell-based
Conditions: Table 3; compounds of Table 1 as modulators of CFTR activity; protocol not stated
In short: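 Corrector readout: membrane-potential FRET (CC2-DMPE donor, DiSBAC2(3) acceptor) on VIPR II after Cl⁻-free gluconate bath with 10 μM forskolin and 20 μM genistein. Before this, F508del-expressing NIH3T3 cells were exposed to test compound for 16 h at 37 °C without serum; 27 °C incubation served as temperature-correction control.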

T1 sequence (P13569 with tags, fused parts or gaps DEL508-508): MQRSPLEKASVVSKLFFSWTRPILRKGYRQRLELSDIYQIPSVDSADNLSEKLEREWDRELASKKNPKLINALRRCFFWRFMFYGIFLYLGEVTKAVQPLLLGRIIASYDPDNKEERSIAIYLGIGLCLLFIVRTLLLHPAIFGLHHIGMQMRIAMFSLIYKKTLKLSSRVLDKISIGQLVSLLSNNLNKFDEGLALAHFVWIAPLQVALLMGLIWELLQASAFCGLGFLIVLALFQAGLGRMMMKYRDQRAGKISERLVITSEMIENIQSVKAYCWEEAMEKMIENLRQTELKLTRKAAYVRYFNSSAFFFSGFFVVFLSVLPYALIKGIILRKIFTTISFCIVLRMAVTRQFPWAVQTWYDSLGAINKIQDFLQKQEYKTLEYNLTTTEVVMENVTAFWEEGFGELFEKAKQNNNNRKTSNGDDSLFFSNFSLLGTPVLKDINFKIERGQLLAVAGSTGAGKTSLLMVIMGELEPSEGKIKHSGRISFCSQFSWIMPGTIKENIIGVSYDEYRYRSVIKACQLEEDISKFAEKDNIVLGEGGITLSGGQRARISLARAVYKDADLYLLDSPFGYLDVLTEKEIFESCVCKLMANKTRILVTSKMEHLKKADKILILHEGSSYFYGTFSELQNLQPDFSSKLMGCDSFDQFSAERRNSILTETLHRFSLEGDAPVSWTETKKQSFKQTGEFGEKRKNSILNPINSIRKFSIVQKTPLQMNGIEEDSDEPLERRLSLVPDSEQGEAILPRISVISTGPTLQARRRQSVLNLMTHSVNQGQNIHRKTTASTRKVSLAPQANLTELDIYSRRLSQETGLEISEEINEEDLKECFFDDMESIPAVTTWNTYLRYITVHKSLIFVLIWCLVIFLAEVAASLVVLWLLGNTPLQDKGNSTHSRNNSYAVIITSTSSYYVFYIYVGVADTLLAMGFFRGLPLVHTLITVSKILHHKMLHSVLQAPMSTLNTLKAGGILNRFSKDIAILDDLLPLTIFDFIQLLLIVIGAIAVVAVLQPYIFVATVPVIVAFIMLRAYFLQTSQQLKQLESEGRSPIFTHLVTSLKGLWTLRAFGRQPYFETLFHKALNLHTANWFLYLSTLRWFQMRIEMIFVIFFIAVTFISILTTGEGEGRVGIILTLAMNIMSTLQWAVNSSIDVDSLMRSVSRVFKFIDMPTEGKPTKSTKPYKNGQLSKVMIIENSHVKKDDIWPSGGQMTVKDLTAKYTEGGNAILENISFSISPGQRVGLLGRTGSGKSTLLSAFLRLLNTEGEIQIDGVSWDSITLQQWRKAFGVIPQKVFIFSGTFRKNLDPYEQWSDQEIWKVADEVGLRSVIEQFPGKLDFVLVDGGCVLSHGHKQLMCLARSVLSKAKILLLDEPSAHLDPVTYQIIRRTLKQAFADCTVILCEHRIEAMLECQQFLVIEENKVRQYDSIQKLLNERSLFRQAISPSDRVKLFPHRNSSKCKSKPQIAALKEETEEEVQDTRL

Row | Compound | EC30
1 | Cc1cc(C)c(Cn2nc(C(C)(C)C)cc2C(=O)NS(=O)(=O)c2cccc(N(C)C)c2C)c(C)c1 [Compound 104, 5-tert-butyl-N-[3-(dimethylamino)-2-methyl-phenyl]sulfonyl-2-[(2,4,6-trimethylphenyl)methyl]pyrazole-3-carboxamide] | +++ (“+++” means <3 uM)
2 | Cc1cccc(C)c1Cn1nc(C2CCCC2)cc1C(=O)NS(=O)(=O)c1cccc(N)c1 [Compound 105, N-(3-aminophenyl)sulfonyl-5-cyclopentyl-2-[(2,6-dimethylphenyl)methyl]pyrazole-3-carboxamide] | +++ (“+++” means <3 uM)
3 | CC(C)(C)c1cc(C(=O)NS(=O)(=O)c2ccccc2)n(Cc2cccc(-n3cccc3)c2)n1 [Compound 108, N-(benzenesulfonyl)-5-tert-butyl-2-[(3-pyrrol-1-ylphenyl)methyl]pyrazole-3-carboxamide] | +++ (“+++” means <3 uM)
4 | Cc1cccc(C)c1Cn1nc(-c2ccccc2F)cc1C(=O)NS(=O)(=O)c1ccccc1 [Compound 109, N-(benzenesulfonyl)-2-[(2,6-dimethylphenyl)methyl]-5-(2-fluorophenyl)pyrazole-3-carboxamide] | +++ (“+++” means <3 uM)
5 | Cc1cc(C)c(Cn2c(C(=O)NS(=O)(=O)c3ccccc3O)cc3ccccc32)c(C)c1 [Compound 112, N-(2-hydroxyphenyl)sulfonyl-1-[(2,4,6-trimethylphenyl)methyl]indole-2-carboxamide] | +++ (“+++” means <3 uM)
6 | CC(C)Oc1ccc(-c2ccc(C(=O)NS(=O)(=O)c3cccc(N)n3)c(N3CCCC(C(C)C)C3)n2)cn1 (centres unmarked) [Compound 114, N-[(6-amino-2-pyridyl)sulfonyl]-6-(6-isopropoxy-3-pyridyl)-2-(3-isopropyl-1-piperidyl)pyridine-3-carboxamide] | +++ (“+++” means <3 uM)
7 | COc1ccc2cc(C(=O)NS(=O)(=O)c3cccc(N)c3)n(Cc3c(C)cccc3C)c2c1 [Compound 116, N-(3-aminophenyl)sulfonyl-1-[(2,6-dimethylphenyl)methyl]-6-methoxy-indole-2-carboxamide] | ++ (“++” means between 3 uM and 10 uM)
8 | Cc1cccc(C)c1Cn1nc(-c2ccc(C(F)F)cc2)cc1C(=O)NS(=O)(=O)c1ccccc1 [Compound 119, N-(benzenesulfonyl)-5-[4-(difluoromethyl)phenyl]-2-[(2,6-dimethylphenyl)methyl]pyrazole-3-carboxamide] | +++ (“+++” means <3 uM)
9 | Cc1cc(C)c(CN2Cc3ccccc3C2C(=O)NS(=O)(=O)c2ccc(N)cc2)c(C)c1 (centres unmarked) [Compound 121, N-(4-aminophenyl)sulfonyl-2-[(2,4,6-trimethylphenyl)methyl]isoindoline-1-carboxamide] | ++ (“++” means between 3 uM and 10 uM)
10 | Cc1cc(C)c(Cn2nc(C(C)(C)C)cc2C(=O)NS(=O)(=O)c2cccc(N)c2C)c(C)c1 [Compound 123, N-(3-amino-2-methyl-phenyl)sulfonyl-5-tert-butyl-2-[(2,4,6-trimethylphenyl)methyl]pyrazole-3-carboxamide] | +++ (“+++” means <3 uM)
11 | Cc1cc(C)c(Oc2nc(-c3cccc(OCC(C)C)c3)ccc2C(=O)NS(=O)(=O)c2ccc[nH]c2=O)c(C)c1 [Compound 125, 6-(3-isobutoxyphenyl)-N-[(2-oxo-1H-pyridin-3-yl)sulfonyl]-2-(2,4,6-trimethylphenoxy)pyridine-3-carboxamide] | ++ (“++” means between 3 uM and 10 uM)
12 | Cc1cc(C)c(CN2Cc3ccccc3[C@H]2C(=O)NS(=O)(=O)c2cccc(N)c2)c(C)c1 [Compound 126, (1S)—N-(3-aminophenyl)sulfonyl-2-[(2,4,6-trimethylphenyl)methyl]isoindoline-1-carboxamide] | +++ (“+++” means <3 uM)
13 | Cc1cc(C)c(Cn2c(C(=O)NS(=O)(=O)c3ccccc3)cc3c(Cl)cccc32)c(C)c1 [Compound 127, N-(benzenesulfonyl)-4-chloro-1-[(2,4,6-trimethylphenyl)methyl]indole-2-carboxamide] | +++ (“+++” means <3 uM)
14 | Cc1cccc(C)c1Cn1nc(-c2ccccc2N(C)C)cc1C(=O)NS(=O)(=O)c1ccccc1 [Compound 128, N-(benzenesulfonyl)-5-[2-(dimethylamino)phenyl]-2-[(2,6-dimethylphenyl)methyl]pyrazole-3-carboxamide] | +++ (“+++” means <3 uM)
15 | CC(C)(C)c1ccc(C(=O)NS(=O)(=O)c2cccc(N)c2)c(-c2ccc(C(F)(F)F)cc2)n1 [Compound 129, N-(3-aminophenyl)sulfonyl-6-tert-butyl-2-[4-(trifluoromethyl)phenyl]pyridine-3-carboxamide] | ++ (“++” means between 3 uM and 10 uM)
16 | CC(C)(C)c1ccc(C(=O)NS(=O)(=O)c2ccccc2)c(OCc2ccccc2)n1 [Compound 130, N-(benzenesulfonyl)-2-benzyloxy-6-tert-butyl-pyridine-3-carboxamide] | +++ (“+++” means <3 uM)
17 | Cc1cc(C)c(Oc2nc(-c3ccc(C(F)(F)F)nc3)ccc2C(=O)NS(=O)(=O)c2cccc(N)n2)c(C)c1 [Compound 132, N-[(6-amino-2-pyridyl)sulfonyl]-6-[6-(trifluoromethyl)-3-pyridyl]-2-(2,4,6-trimethylphenoxy)pyridine-3-carboxamide] | +++ (“+++” means <3 uM)
18 | Cc1cccc(C)c1Cn1nc(-c2cccc(OC(C)C)c2)cc1C(=O)NS(=O)(=O)c1ccccc1 [Compound 133, N-(benzenesulfonyl)-2-[(2,6-dimethylphenyl)methyl]-5-(3-isopropoxyphenyl)pyrazole-3-carboxamide] | +++ (“+++” means <3 uM)
19 | Cc1cc(C)c(Cn2c(C(=O)NS(=O)(=O)c3ccc(N)cc3)cc3ccccc32)c(C)c1 [Compound 134, N-(4-aminophenyl)sulfonyl-1-[(2,4,6-trimethylphenyl)methyl]indole-2-carboxamide] | +++ (“+++” means <3 uM)
20 | COc1ccc(-c2cc(C(=O)NS(=O)(=O)c3ccccc3)n(Cc3c(C)cccc3C)n2)c(OC)c1 [Compound 135, N-(benzenesulfonyl)-5-(2,4-dimethoxyphenyl)-2-[(2,6-dimethylphenyl)methyl]pyrazole-3-carboxamide] | +++ (“+++” means <3 uM)

The next lines start with the values.

Row | EC30 | Compound
21 | +++ (“+++” means <3 uM) | Cc1cc(C)c(Oc2ccc(C(C)(C)C)nc2C(=O)NS(=O)(=O)c2cccc(N)c2)c(C)c1 [Compound 106, N-(3-aminophenyl)sulfonyl-6-tert-butyl-3-(2,4,6-trimethylphenoxy)pyridine-2-carboxamide]
22 | +++ (“+++” means <3 uM) | Cc1cc(C)c(Oc2nc(C(C)(C)C)ccc2C(=O)NS(=O)(=O)c2c[nH]ccc2=O)c(C)c1 [Compound 107, 6-tert-butyl-N-[(4-oxo-1H-pyridin-3-yl)sulfonyl]-2-(2,4,6-trimethylphenoxy)pyridine-3-carboxamide]
23 | +++ (“+++” means <3 uM) | Cc1cc(C)c(Cn2nc(C(C)(C)C)cc2C(=O)NS(=O)(=O)c2cccc(N)c2)c(C)c1 [Compound 110, N-(3-aminophenyl)sulfonyl-5-tert-butyl-2-[(2,4,6-trimethylphenyl)methyl]pyrazole-3-carboxamide]
24 | +++ (“+++” means <3 uM) | Cc1cc(C#N)cc(C)c1Oc1nc(C(C)(C)C)ccc1C(=O)NS(=O)(=O)c1cccc(N)c1 [Compound 111, N-(3-aminophenyl)sulfonyl-6-tert-butyl-2-(4-cyano-2,6-dimethyl-phenoxy)pyridine-3-carboxamide]
25 | ++ (“++” means between 3 uM and 10 uM) | Cc1cc(C)c(Oc2nc(C(C)(C)C)ccc2C(=O)NS(=O)(=O)c2cc[nH]c(=O)c2)c(C)c1 [Compound 113, 6-tert-butyl-N-[(2-oxo-1H-pyridin-4-yl)sulfonyl]-2-(2,4,6-trimethylphenoxy)pyridine-3-carboxamide]
26 | +++ (“+++” means <3 uM) | COc1ccccc1S(=O)(=O)NC(=O)c1ccc(C(C)(C)C)nc1Oc1c(C)cc(C)cc1C [Compound 115, 6-tert-butyl-N-(2-methoxyphenyl)sulfonyl-2-(2,4,6-trimethylphenoxy)pyridine-3-carboxamide]
27 | +++ (“+++” means <3 uM) | Cc1cc(C)c(Oc2nc(C(C)(C)C)ccc2C(=O)NS(=O)(=O)c2ccncc2)c(C)c1 [Compound 117, 6-tert-butyl-N-(4-pyridylsulfonyl)-2-(2,4,6-trimethylphenoxy)pyridine-3-carboxamide]
28 | ++ (“++” means between 3 uM and 10 uM) | Cc1cc(C)c(Cn2c(C(=O)NS(=O)(=O)c3cccc(N)c3)c(C)c3ccccc32)c(C)c1 [Compound 118, N-(3-aminophenyl)sulfonyl-3-methyl-1-[(2,4,6-trimethylphenyl)methyl]indole-2-carboxamide]
29 | +++ (“+++” means <3 uM) | COc1cccc2c1cc(C(=O)NS(=O)(=O)c1cccc(N)c1)n2Cc1c(C)cc(C)cc1C [Compound 120, N-(3-aminophenyl)sulfonyl-4-methoxy-1-[(2,4,6-trimethylphenyl)methyl]indole-2-carboxamide]
30 | ++ (“++” means between 3 uM and 10 uM) | COc1ncccc1-c1cc(C(=O)NS(=O)(=O)c2cccc(N)c2)n(Cc2c(C)cc(C)cc2C)n1 [Compound 122, N-(3-aminophenyl)sulfonyl-5-(2-methoxy-3-pyridyl)-2-[(2,4,6-trimethylphenyl)methyl]pyrazole-3-carboxamide]
31 | ++ (“++” means between 3 uM and 10 uM) | Cc1cc(C)c(Oc2nc(C)c(C#N)cc2C(=O)NS(=O)(=O)c2cccc(N)c2)c(C)c1 [Compound 124, N-(3-aminophenyl)sulfonyl-5-cyano-6-methyl-2-(2,4,6-trimethylphenoxy)pyridine-3-carboxamide]
32 | +++ (“+++” means <3 uM) | Cc1cc(C)c(Oc2nc(C(C)(C)C)ccc2C(=O)NS(=O)(=O)c2ccccc2O)c(C)c1 [Compound 131, 6-tert-butyl-N-(2-hydroxyphenyl)sulfonyl-2-(2,4,6-trimethylphenoxy)pyridine-3-carboxamide]

— patent US10758534B2 (Vertex Pharmaceuticals Incorporated, priority 2014, dated 2020)
